Values quoted from earlier work in PMC9042886 (RSC Advances, 2021).

Columns and labels:
[1] = tested on: HDAC6; conditions: read-out: IC50 for HDAC6
[2] = tested on: HDAC8; conditions: read-out: IC50 for HDAC8

## Oc1ccc[nH]c1=S [3-HPT, 3-hydroxypyridin-2-thione]
[1]
  IC50: 306 ± 69 nM
[2]
  IC50: 3100 ± 1650 nM
